Values after ≈ are worked out from the molar mass of the structure shown. Like-named read-outs stand apart in the source and are kept apart here.

Data on 15 molecules can be found in PMC12796986 (Journal of medicinal chemistry, 2025).

The target of one series is mpox resolvase (Mpr) (Monkeypox virus, UniProt A0A7H0DNC1). Description: biochemical. It is filed as biochemical.
A further series has as its system VACV-Gluc reporter virus. Nature of the series: microbe, parasite or virus in culture. In kind it is cell-based, vaccinia virus. The note with it: for EC50: Orthopoxvirus vaccinia, HFF, 24 h, read-out: VACV EC50.
Series [1] can be described thus: in vitro. The note with it: human.
The next series can be described thus: physchem. The note with it: pH 7.2, aqueous buffer, kinetic from dmso stock.
The nature of series [2]: in vitro. The settings on record: human, plasma, pH 7.4.
Series [3] is described as follows: in vitro. The settings on record: human, microsomes, pH 7.4.
Series [4] can be described thus: in vitro. The settings on record: PAMPA.
For series [5] the following is noted: pH 7.2.
The conditions of series [6]: microsomes.
The test system of series [7] is fowlpox virus resolvase (Fpr). The note with it: read-out: Fpr IC50; cited from earlier work.

Chain of mpox resolvase (Mpr) (A0A7H0DNC1 whole entry, looked up): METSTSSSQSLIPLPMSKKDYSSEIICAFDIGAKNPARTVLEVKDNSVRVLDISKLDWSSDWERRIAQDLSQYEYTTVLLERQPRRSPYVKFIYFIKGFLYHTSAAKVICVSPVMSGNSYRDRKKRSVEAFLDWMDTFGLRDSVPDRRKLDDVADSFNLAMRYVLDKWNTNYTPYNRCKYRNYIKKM

On mpox resolvase (Mpr), `O=c1c(-c2ccccc2)c(O)c2cc(-c3ccc(Oc4ccccc4)cc3)cnc2n1O` [4a-3, 1,4-dihydroxy-6-(4-phenoxyphenyl)-3-phenyl-1,8-naphthyridin-2(1H)-one] showed an IC50 of 120 ± 10 nM. Moreover, in the series on VACV-Gluc reporter virus, the “SI (selectivity index, CC50 / EC50)” value is recorded as >1.9 × 10^2 and the 50% effective concentration (EC50) turned out to be 1300 ± 400 nM. Besides, in “in vitro [1]”, the CC50 was more than 250 µM. In “physchem”, this molecule registered a solubility of 86 ± 5 µM (≈ 36.3 µg/mL). In the series “in vitro [2]”, this molecule yielded a half-life of more than 1440 min. The molecule also gave a half-life in “in vitro [3]” of 42.9 ± 0.7 min. Besides, in the series “in vitro [4]”, the Papp was found to be 8.6 ± 0.8 ×10⁻⁶ cm/s.
At mpox resolvase (Mpr), `O=c1c(-c2ccccc2)c(O)c2cc(-c3ccccc3)cnc2n1O` [4a-5, 1,4-dihydroxy-3,6-diphenyl-1,8-naphthyridin-2(1H)-one] showed an IC50 of 900 ± 200 nM. In the series with VACV-Gluc reporter virus, the “SI (selectivity index, CC50 / EC50)” value was >1.0 × 10^2 and the EC50 is 2400 ± 300 nM. This molecule also gave a CC50 in the series “in vitro [1]” of more than 250 µM.
Turning to `COc1ccc(-c2cnc3c(c2)c(O)c(-c2ccccc2)c(=O)n3O)cc1F` [4a-10, 6-(3-fluoro-4-methoxyphenyl)-1,4-dihydroxy-3-phenyl-1,8-naphthyridin-2(1H)-one], on mpox resolvase (Mpr), inhibition was half-maximal at 1600 ± 200 nM (IC50). Moreover, in the series with VACV-Gluc reporter virus, the “SI (selectivity index, CC50 / EC50)” value was more than 26 and the EC50 amounted to 9700 ± 300 nM. The CC50 in “in vitro [1]” was more than 250 µM.
`CCc1c(O)c2cc(-c3ccc(-c4ccccc4)cc3)cnc2n(O)c1=O` [4b-2, 6-([1,1’-biphenyl]-4-yl)-3-ethyl-1,4-dihydroxy-1,8-naphthyridin-2(1H)-one]: the IC50 against mpox resolvase (Mpr) turned out to be 360 ± 20 nM. In addition, in the series with VACV-Gluc reporter virus, the “SI (selectivity index, CC50 / EC50)” value is >6.4 × 10^2. In the series with VACV-Gluc reporter virus, the EC50 was found to be 390 ± 10 nM. Further, the CC50 in the series “in vitro [1]” was more than 250 µM. The concentration in solution in “physchem” (solubility) was 1.4 ± 0.1 µM (≈ 0.502 µg/mL). The values for the half-life in the series “in vitro [2]” and in the series “in vitro [3]” were more than 1440 min and more than 120 min, respectively. Further, the apparent permeability coefficient (Papp) in “in vitro [4]” came to 3.8 ± 0.1 ×10⁻⁶ cm/s.
As to `CCc1c(O)c2cc(-c3ccc(Oc4ccccc4)cc3)cnc2n(O)c1=O` [4b-3, 3-ethyl-1,4-dihydroxy-6-(4-phenoxyphenyl)-1,8-naphthyridin-2(1H)-one], the IC50 against mpox resolvase (Mpr) was found to be 320 ± 60 nM. Also, in the series on VACV-Gluc reporter virus, the “SI (selectivity index, CC50 / EC50)” value is listed as >1.5 × 10^2 and the EC50 is 1600 ± 100 nM. Further, the CC50 in “in vitro [1]” is more than 250 µM. For the same molecule, the solubility in the series “physchem” was 47 ± 4 µM (≈ 17.6 µg/mL). Besides, in “in vitro [2]”, the half-life was more than 1440 min. Besides, the half-life in “in vitro [3]” amounted to 35.2 ± 0.8 min. The molecule further displayed an apparent permeability coefficient (Papp) in the series “in vitro [4]” of 5.2 ± 0.6 ×10⁻⁶ cm/s.
Turning to `NC(=O)c1cccc(-c2cnc3c(c2)c(O)cc(=O)n3O)c1` [4c-12, 3-(5,8-dihydroxy-7-oxo-7,8-dihydro-1,8-naphthyridin-3-yl) benzamide], the IC50 on mpox resolvase (Mpr) (read-out: Mpr IC50) is 15000 ± 2000 nM.
As for `Cc1ccc(-c2cnc3c(c2)c(O)cc(=O)n3O)cc1F` [4c-13, 6-(3-fluoro-4-methylphenyl)-1,4-dihydroxy-1,8-naphthyridin-2(1H)-one], on mpox resolvase (Mpr), the “fluorescence quenching in the FRET assay” value was “direct quenching of fluorophore”.
Consider `O=c1cc(O)c2cc(Br)cnc2n1O` [4c-14, 6-bromo-1,4-dihydroxy-1,8-naphthyridin-2(1H)-one], for which half-maximal inhibition against mpox resolvase (Mpr) (IC50) was put at 9000 ± 1000 nM.
As for `O=c1c(-c2ccccc2)c(O)c2c(-c3cccc(-c4ccccc4)c3)ccnc2n1O` [5-1, 5-([1,1’-biphenyl]-3-yl)-1,4-dihydroxy-3-phenyl-1,8-naphthyridin-2(1H)-one], on mpox resolvase (Mpr), half-maximal inhibition (IC50) was put at 36 ± 1 nM and the “fold improvement in Mpr inhibition over C-6 regioisomer (compound 3 for 5-1)” value worked out at 10 fold. Also, in the series on VACV-Gluc reporter virus, the “SI (selectivity index, CC50 / EC50)” value is listed as 4.7 × 10^4; the “fold better antiviral potency than brincidofovir” value is given as 2 fold; the “fold improvement in antiviral potency against VACV over compound 3” value was 400 fold; the EC50 was determined as 3.2 ± 0.7 nM. Besides, in series [5], the “solubility” value was “acceptable solubility”. For the same molecule, the “human microsomal stability” value in [6] was “excellent human microsomal stability”. Moreover, in “in vitro [1]”, the CC50 turned out to be 150 µM. The solubility in the series “physchem” came out at 130 ± 4 µM (≈ 52.8 µg/mL). The half-life in the series “in vitro [2]” is more than 1440 min. In addition, the half-life in “in vitro [3]” is more than 120 min. Also, in the series “in vitro [4]”, the Papp stood at 9 ± 1 ×10⁻⁶ cm/s.
On to `O=c1cc(O)c2c(-c3cccc(-c4ccccc4)c3)ccnc2n1O` [5-3, 5-([1,1’-biphenyl]-3-yl)-1,4-dihydroxy-1,8-naphthyridin-2(1H)-one], for which, at mpox resolvase (Mpr), the IC50 was determined as 15 ± 1 nM and the “fold improvement in Mpr inhibition over C-6 regioisomer (compound 3 for 5-1)” value is 10 fold. For the same molecule, the concentration for a half-maximal effect (EC50) in the series on VACV-Gluc reporter virus turned out to be 6000 ± 1000 nM. Besides, the CC50 in “in vitro [1]” was more than 250 µM.
`CSc1ccc(-c2ccnc3c2c(O)cc(=O)n3O)cc1` [5-4, 1,4-dihydroxy-5-(4-(methylthio)phenyl)-1,8-naphthyridin-2(1H)-one] displayed a half-maximal inhibitory concentration (IC50) at mpox resolvase (Mpr) of 120 ± 10 nM.
The same measure, in the same setting: with `O=c1c(-c2ccccc2)cc2cc(-c3cccc(-c4ccccc4)c3)cnc2n1O` [6-1, 6-([1,1’-biphenyl]-3-yl)-1-hydroxy-3-phenyl-1,8-naphthyridin-2(1H)-one] the figure was more than 50000 nM; with `CSc1cccc(-c2cnc3c(c2)cc(-c2ccccc2)c(=O)n3O)c1` [6-2, 1-hydroxy-6-(3-(methylthio)phenyl)-3-phenyl-1,8-naphthyridin-2(1H)-one], more than 50000 nM.
Consider `CCCCCCCCCCCCCCCCOCCCOP(=O)(O)CO[C@H](CO)Cn1ccc(N)nc1=O` [Brincidofovir, brincidofovir, reference compound], for which, in the series on VACV-Gluc reporter virus, the “SI (selectivity index, CC50 / EC50)” value is >3 × 10^4 and the EC50 was found to be 7 ± 4 nM. In “in vitro [1]”, this molecule returned a CC50 of more than 250 µM.
Regarding `O=c1c(-c2ccccc2)c(O)c2cc(-c3cccc(-c4ccccc4)c3)cnc2n1O` [compound 3, 6-([1,1’-biphenyl]-3-yl)-1,4-dihydroxy-3-phenyl-1,8-naphthyridin-2(1H)-one], the results for the IC50 (on mpox resolvase (Mpr); in series [7]) were 340 ± 60 nM and 300 nM, respectively. In the series with VACV-Gluc reporter virus, the “SI (selectivity index, CC50 / EC50)” value is recorded as >1.9 × 10^2. Moreover, the concentration giving a half-maximal response (EC50) in the series on VACV-Gluc reporter virus worked out at 1300 ± 300 nM. The entries for the “solubility” value (in series [5]; in the series “physchem”) were “acceptable solubility” and 130 ± 8 µM (≈ 52.8 µg/mL), respectively. The “human microsomal stability” value in [6] is “excellent human microsomal stability”. In “in vitro [1]”, this molecule gave a CC50 of more than 250 µM. For the same molecule, the figures for the half-life in the series “in vitro [2]” and in “in vitro [3]” were more than 1440 min and more than 120 min, respectively. In “in vitro [4]”, this molecule yielded an apparent permeability coefficient (Papp) of 6 ± 2 ×10⁻⁶ cm/s.
